Data reported in paper PMC11091879, “Inhibitors of the Thioesterase Activity of Mycobacterium tuberculosis Pks13 Discovered Using DNA-Encoded Chemical Library Screening” (ACS Infectious Diseases, 2024).

What was measured:
Assay type in all cases: cell-based, Mycobacterium tuberculosis
[1] = system: H37Rv Pks13-TE R1563H mutant
[2] = system: H37Rv Pks13-TE A1561 V mutant
[3] = system: H37Rv Pks13-TE A1564D mutant
[4] = system: H37Rv Pks13-TE N1640K mutant
[5] = system: H37Rv Pks13-TE V1537A mutant
[6] = system: H37Rv Pks13-TE V1687F mutant
[7] = system: H37Rv Pks13-TE Y1674C mutant
[8] = system: H37Rv Pks13-TE Y1686C mutant
[9] = system: WT H37Rv

Row | SMILES | Fold Change in MIC (Mutant MIC/WT H37Rv MIC) [1] [fold] | Fold Change in MIC (Mutant MIC/WT H37Rv MIC) [2] [fold] | Fold Change in MIC (Mutant MIC/WT H37Rv MIC) [3] [fold] | Fold Change in MIC (Mutant MIC/WT H37Rv MIC) [4] [fold] | Fold Change in MIC (Mutant MIC/WT H37Rv MIC) [5] [fold] | Fold Change in MIC (Mutant MIC/WT H37Rv MIC) [6] [fold] | Fold Change in MIC (Mutant MIC/WT H37Rv MIC) [7] [fold] | Fold Change in MIC (Mutant MIC/WT H37Rv MIC) [8] [fold] | frequency of resistance (FOR) [9]
1 | CO[C@H]1/C=C/O[C@@]2(C)Oc3c(C)c(O)c4c(O)c(c(/C=N/N5CCN(C)CC5)c(O)c4c3C2=O)NC(=O)/C(C)=C\C=C\[C@H](C)[C@H](O)[C@@H](C)[C@@H](O)[C@@H](C)[C@H](OC(C)=O)[C@@H]1C [Rifampicin, reference compound] | 0.9 | 1.2 | 0.8 | 1.5 | 1.3 | 1.2 | 1.6 | 1 | 
2 | Cc1cc(C(=O)NCc2ccncc2)nc(N2CCC(C(=O)N3CCN(C(=O)c4cnc5c(C)cccc5c4)CC3)CC2)n1 [X21429] | 1.6 | >57 | 17 | >57 | 8.8 | 2.3 | 18 | 3.8 | 
3 | COc1ccc(OC)c(-c2ccc(-c3cn(CCc4ccc(C(=O)N(C)C)cc4)nn3)cn2)c1 [X20404] | >63 | 40 | >63 | 37 | >63 | >63 | >63 | 19 | 4.7 × 10^–7
